Here are results for 2 compounds from PMC8085340, “Inhibiting Pyridoxal Kinase of Entamoeba histolytica Is Lethal for This Pathogen” (Frontiers in Cellular and Infection Microbiology, 2021).

This test deals with T1, EhPLK (pyridoxal kinase) (Entamoeba histolytica, UniProt C4LVZ4).
T1 construct: gene EHI_126090; recombinant histidine-tagged EhPLK
T1 sequence (C4LVZ4 1-279): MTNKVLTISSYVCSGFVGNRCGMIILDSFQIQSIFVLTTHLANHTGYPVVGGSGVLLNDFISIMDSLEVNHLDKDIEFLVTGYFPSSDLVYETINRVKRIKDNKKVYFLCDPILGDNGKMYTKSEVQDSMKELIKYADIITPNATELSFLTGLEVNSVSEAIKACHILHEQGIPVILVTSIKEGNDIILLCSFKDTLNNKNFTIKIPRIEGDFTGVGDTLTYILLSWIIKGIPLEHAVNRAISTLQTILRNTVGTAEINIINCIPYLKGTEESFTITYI
Kind of test: spectrophotometric PLP formation assay at […] nm with purified enzyme; partial inhibition (maximum […]). The test is classed as biochemical.

As for `O=S1(=O)CCCN1c1ccc(Nc2ncnc3sccc23)cc1` [compound 2, N-[4-(1,1-dioxo-1,2-thiazolidin-2-yl)phenyl]thieno[2,3-d]pyrimidin-4-amine], the IC50 is about 100 µM.

As for `O=S1(=O)CCCN1c1ccc(Nc2ncnc3ccsc23)cc1` [compound 1, N-[4-(1,1-dioxo-1,2-thiazolidin-2-yl)phenyl]thieno[3,2-d]pyrimidin-4-amine], the IC50 is about 250 µM.
